The structures appear in SMILES notation.

The series in a line: gradient 5% acetonitrile 3 min, to 50% in 2 min, to 85% in 15 min, held 3 min, 100 µL/min. The note with it: column: Zorbax Extend-C18 2.1 x 50 mm; eluents: water / acetonitrile, 0.1% formic acid. The method in brief: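 Values are retention times taken from adduct peaks that software picked and an analyst inspected. The pure standards were run as mixtures of ~100 molecules on HPLC linked to a quadrupole time-of-flight mass spectrometer, in positive and negative ionization mode. A Zorbax Extend-C18 column (2.1 × 50 mm, 1.8 μm) was used at 100 μL/min with water and acetonitrile, each including 0.1% formic acid.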
Regarding `CCc1ccc(-n2nnc(C(=O)NCCOC)c2-c2ccncc2)cc1`, the RP-LC retention time worked out at 725 s.

`COC(=O)C1=CN(c2ccc(F)c(Cl)c2)c2ccc(F)cc2S1(=O)=O` showed an RP-LC retention time of 929 s.

In turn, `Cc1cc2c(cc1S(=O)(=O)NC(C)C)N(C(=O)C1CC1)CC2` showed an RP-LC retention time of 808 s.

For the molecule `CC1(C(=O)NCc2ccccc2)CN(S(C)(=O)=O)CC(=O)N1CCCc1ccccc1` (stereo unspecified), the RP-LC retention time amounted to 856 s.

Molecule `Cc1nc(C)c(C(=O)Nc2cc(F)ccc2F)s1` had an RP-LC retention time of 783 s.

The molecule `CN1CCN(c2cc(C(=O)O)c3cc(NC(=O)C(C)(C)C)ccc3n2)CC1` gave an RP-LC retention time of 578 s.

The molecule `C=CCNC(=O)C1COc2ccccc2O1` (stereo unspecified) came in with an RP-LC retention time of 630 s.

Molecule `COc1ccc(N2CC(c3nc(-c4ccc5c(c4)OCO5)no3)CC2=O)cc1OC` (stereo unspecified) gave an RP-LC retention time of 824 s.

Molecule `CCn1cc(S(=O)(=O)Nc2ccc(F)c(F)c2)c2cccnc21` registered an RP-LC retention time of 848 s.

The molecule `COc1ccc(C(=O)n2nc(C)cc2C)cc1OC` displayed an RP-LC retention time of 788 s.

Turning to `CN(C)CCNc1ncnc2c1cnn2-c1cccc(Cl)c1`, the RP-LC retention time was 648 s.

Take `CCn1c(SCC(=O)N2CCCCC2)nnc1-c1ccc2c(c1)OCCCO2`: the RP-LC retention time came to 734 s.

Regarding `O=C(Cn1nc2c(SC3CCCCC3)nccn2c1=O)Nc1ccc(Br)cc1F`, the RP-LC retention time was found to be 1120 s.

As for `CC(=O)Nc1cccc(N2CC(C(=O)Nc3ccc(Br)c(C)c3)CC2=O)c1` (stereo unspecified), the RP-LC retention time was determined as 703 s.

The molecule `Cc1nc2cc(-c3noc(-c4ccc(Cl)s4)n3)ccc2o1` showed an RP-LC retention time of 1230 s.

Consider `O=c1c(=O)n(-c2cccc(Cl)c2)ccn1Cc1nc(-c2ccc(F)cc2)no1`, for which the RP-LC retention time turned out to be 881 s.

The molecule `CS(=O)(=O)N(C1CCOCC1)C1CN(C(=O)Nc2ccccc2)C1` returned an RP-LC retention time of 666 s.

With `CN1CCC(OC2CCN(C(=O)c3ccc(Br)cc3)CC2)CC1`, the RP-LC retention time turned out to be 615 s.

As for `O=C(NCc1ccc2c(c1)OCO2)c1ccc2c(c1)N(Cc1ccccc1)C(=O)CO2`, the RP-LC retention time stood at 857 s.

`O=C(CSCc1ccccc1)NCC#CCN1CCc2ccccc2C1` registered an RP-LC retention time of 581 s.

With `COC(=O)c1c(C)[nH]c(C(=O)N2CCCC(C(=O)NCc3ccccc3)C2)c1C` (stereo unspecified), the RP-LC retention time is 732 s.

On to `CCOC(=O)c1ccccc1NC(=O)N1CCc2nc[nH]c2C1`, for which the RP-LC retention time came out at 626 s.

On to `Cc1nc(CC(=O)Nc2nc(-c3ccc(Br)cc3)cs2)cs1`, for which the RP-LC retention time is 996 s.

As for `COc1ccc(C2C(C(=O)NCC3CCCO3)c3cc(OC)c(OC)cc3C(=O)N2C)cc1OC` (stereo unspecified), the RP-LC retention time amounted to 652 s.

The molecule `CC1=C/C(=C2/N=C(N(C)C)SS2)C(C)=N1` registered an RP-LC retention time of 611 s.

Molecule `COc1ccccc1C(=O)NC1(C(F)(F)F)C(=O)N(CC(C)C)C2=C1C(=O)CC(C)(C)C2` (stereo unspecified) displayed an RP-LC retention time of 1070 s.

`CCOc1ccc(C2C(C(=O)O)c3ccccc3C(=O)N2CCN2CCOCC2)cc1` (stereo unspecified): the RP-LC retention time was 649 s.

In the case of `Cc1ccc(Nc2c(-c3ccccc3O)nc3cc(C)ccn23)cc1`, the RP-LC retention time was 701 s.

Consider `O=C(NC1CCCCC1)C1CCCN(c2ncnc3c2nc2n3CCCCC2)C1` (stereo unspecified), for which the RP-LC retention time was found to be 778 s.

Take `CC(C)c1ccc(NC(=O)CN2CCN(C(=O)Nc3ccc(Br)cc3)CC2=O)cc1`: the RP-LC retention time turned out to be 885 s.

Take `CC(C)NC(=O)N(C1CC1)C1CCOC2(CCN(C(=O)c3ccco3)CC2)C1` (stereo unspecified): the RP-LC retention time is 707 s.

The molecule `CC(=O)N1N=C(c2ccc(Br)cc2)CC1c1ccc2ncccc2c1` (stereo unspecified) came in with an RP-LC retention time of 677 s.

Molecule `O=C(CCCc1ccccc1)N1CCN2CCS(=O)(=O)N(C3CC3)C(=O)C2C1` (stereo unspecified) gave an RP-LC retention time of 852 s.

Regarding `COc1cc(OC)c(NC(=O)Nc2ccc3nc(N4CCN(C)CC4)cc(C)c3c2)cc1Cl`, the RP-LC retention time amounted to 614 s.

For the molecule `CN(C)c1ccc(NC(=O)c2cn(-c3ccc(F)cc3)nn2)cc1`, the RP-LC retention time stood at 675 s.

`CCCN1CCN(c2cc(C(=O)O)c3cc(NC(=O)c4ccc(F)cc4)ccc3n2)CC1` showed an RP-LC retention time of 888 s.

`CCC(C)C(NC(=O)c1cccs1)C(=O)Nc1nc2ccccc2[nH]1` (stereo unspecified) registered an RP-LC retention time of 692 s.

`Cc1cc(NC(=O)CSc2nnc(C(C)C)c3cnn(-c4ccc(C)c(C)c4)c23)no1` yielded an RP-LC retention time of 845 s.

In turn, `CC(C)(C)C(=O)N1CCN(CC(F)(F)F)CC1` displayed an RP-LC retention time of 746 s.

The molecule `COc1ccccc1C(=O)Nc1nnc(C2CC(=O)N(c3ccccc3)C2)o1` (stereo unspecified) displayed an RP-LC retention time of 720 s.

In the case of `Cc1ccccc1Cn1cc(-c2ccncc2)cc1C(=O)NCc1ccccc1`, the RP-LC retention time came to 735 s.

On to `CCOCCCNC(=O)N1CCCC(C)(C(=O)NCc2ccc(C)cc2)C1` (stereo unspecified), for which the RP-LC retention time was determined as 740 s.

Take `COc1ccc(OC)c(CN2CCn3c(nn(CC4CC4)c3=O)C2)c1`: the RP-LC retention time stood at 620 s.

For the molecule `O=C(NCc1ccc(F)cc1F)c1sc2ncccc2c1-n1cccc1`, the RP-LC retention time was found to be 1020 s.

The molecule `Cc1oc(-c2ccccc2)nc1Cc1noc(-c2ccncc2)n1` yielded an RP-LC retention time of 920 s.

For the molecule `Cn1c(CN2CCN(C(=O)NC(C)(C)C)CC2)nc2cc(C(=O)N3CCCC3)ccc21`, the RP-LC retention time amounted to 602 s.

In the case of `CC(C)c1noc(C2CCCN(C(=O)NC3CCCCC3)CCC(=O)NCC2)n1` (stereo unspecified), the RP-LC retention time stood at 752 s.

For the molecule `COc1ccc(-c2noc(C3CCCN3C(=O)c3ccc(N(C)C)cc3)n2)cc1` (stereo unspecified), the RP-LC retention time was 961 s.

`CCN1C(=O)COc2cc(-c3noc(C(=O)NCCC4=CCCCC4)n3)ccc21` had an RP-LC retention time of 1120 s.

Regarding `O=C(c1cn(-c2cc(-c3nc(C4CC4)no3)ccn2)cn1)N1CCCCC1`, the RP-LC retention time was 810 s.

As for `O=C(CC1CCN(C(=O)C2CCCCC2)CC1)NCCCN1CCCC1`, the RP-LC retention time is 595 s.

Molecule `CCn1cnc(S(=O)(=O)N2CCC(C(=O)NCc3ccc(Br)cc3)CC2)c1` showed an RP-LC retention time of 747 s.

The molecule `Cc1cccc(CSc2nnc(CNC(=O)c3ccc(S(=O)(=O)N(C)C)cc3)o2)c1` had an RP-LC retention time of 803 s.

`Cc1ccc(-c2cc3c4nnc(SCC(=O)NCCC(C)C)n4ccn3n2)cc1C` came in with an RP-LC retention time of 942 s.

As for `CCCn1c(=O)sc2cc(S(=O)(=O)N3CCC(C(=O)Nc4cccc(CC)c4)CC3)ccc21`, the RP-LC retention time was 969 s.

In turn, `CCn1cc(S(=O)(=O)Nc2ccc(C)cc2C)c2cccnc21` had an RP-LC retention time of 900 s.

As for `CCOCCCNC(=O)C1CCCN(S(=O)(=O)c2ccc3c(ccn3C)c2)C1` (stereo unspecified), the RP-LC retention time amounted to 788 s.

Take `Cn1nc(-c2nc(Cc3ccccc3)no2)c2c1CCN(C(=O)C1CCOC1)C2` (stereo unspecified): the RP-LC retention time was found to be 777 s.

`CCOc1ccc2ncc(C(=O)c3ccc(C)cc3)c(N3CCN(C)CC3)c2c1` showed an RP-LC retention time of 561 s.

`O=C(CN1C(=O)NC(c2ccc(Cl)cc2)C2=C1COC2=O)NCc1ccccc1Cl` (stereo unspecified) had an RP-LC retention time of 811 s.

Take `O=C(CSc1ccc(N2CCCC(C(=O)NC3CC3)C2)nn1)Nc1cc(F)ccc1F` (stereo unspecified): the RP-LC retention time amounted to 617 s.

`CCC(=O)N1CCc2c(C(=O)N3CCOCC3)cccc21` registered an RP-LC retention time of 630 s.

With `CC(C)CNC(=O)C1CCCN(c2ncnc3c2oc2ccccc23)C1` (stereo unspecified), the RP-LC retention time is 725 s.

Turning to `Cc1ccc(Sc2nccnc2N2CCCC(C(=O)Nc3ccc(Br)cc3)C2)cc1` (stereo unspecified), the RP-LC retention time stood at 1280 s.

In turn, `CC(C)Oc1ccc(CNC(=O)C2CCN(c3cnc4nccnc4c3)CC2)cc1` yielded an RP-LC retention time of 683 s.

The molecule `Cc1cccc(C)c1Nc1c(-c2cc(Br)ccc2O)nc2ncccn12` had an RP-LC retention time of 1090 s.

On to `CC(CCNC(=O)C1CCN(c2nc3cccnc3s2)CC1)N1CCCC1` (stereo unspecified), for which the RP-LC retention time is 580 s.

In turn, `O=c1n(Cc2ccc(Cl)cc2)nc2c(S(=O)(=O)N3CCCCC3)cccn12` displayed an RP-LC retention time of 919 s.

On to `Cc1nn(C)c(C)c1C(=O)N1CC(n2cc(COc3ccc(F)cc3)nn2)C1`, for which the RP-LC retention time turned out to be 712 s.

Turning to `O=C(Cc1csc(Nc2ccccc2)n1)NCCC1=CCCCC1`, the RP-LC retention time turned out to be 865 s.

Take `O=C(NCc1noc(-c2ccc(F)cc2)n1)C1CCC1`: the RP-LC retention time was 774 s.

In turn, `CC1=C(c2ccccc2)S(=O)(=O)N=C1N1CCCN(C(=O)c2cccs2)CC1` displayed an RP-LC retention time of 770 s.

`Cc1ccc(CN2CCC(N3CC4(CCCCC4)C3c3ccncc3)CC2)o1` (stereo unspecified) gave an RP-LC retention time of 591 s.

Take `O=C1CCCc2cc(S(=O)(=O)N3CCN(c4cccc(Cl)c4)CC3)ccc2N1`: the RP-LC retention time worked out at 928 s.

`CC(C)c1ccc(S(=O)(=O)N2CCc3nc(-c4ccccc4)ncc3C2)cc1`: the RP-LC retention time was 1230 s.

For the molecule `Cn1cc(S(=O)(=O)Nc2ccc(F)c(F)c2)c2cccnc21`, the RP-LC retention time was found to be 790 s.

For `O=C(CCCS(=O)(=O)Cc1ccccc1)Nc1nc2c(s1)Cc1ccccc1-2`, the RP-LC retention time is 841 s.

The molecule `O=C(c1cccnc1)N1CCC2(CC1)N=C(c1ccc(Cl)cc1)NO2` gave an RP-LC retention time of 682 s.

Molecule `CCc1cnc2c(c1SCC(=O)N(C)c1ccccc1)c(=O)n(C)c(=O)n2C` returned an RP-LC retention time of 800 s.

Take `O=C(c1cc(-c2ccncc2)n[nH]1)N1CCC(C(=O)N2CCc3ccccc3C2)CC1`: the RP-LC retention time was 614 s.

Regarding `COCCCNC(=O)CN1CCN(c2cc(C(=O)O)c3cc(NC(=O)C4CCCC4)ccc3n2)CC1`, the RP-LC retention time is 575 s.
